According to patent US11419806B2, “Prebiotic oral care methods using a saccharide” (Colgate-Palmolive Company, priority 2013, dated 2022):

Tests used:
Assay in all cases: Twenty-four hour optical density growth in BHI
Assay type in all cases: cell-based
Porphyromonas gingivalis = conditions: P gingivalis
Description: (§1) The extent of growth of the tested bacteria in response to selected saccharides (myo-inositol, D-lactitol, D-turanose and N-acetyl-D-mannosamine) was investigated by setting up growth curves in a nutritionally rich medium (brain heart infusion broth (BHI), Oxoid), over 24 hours. Late exponential growth phase liquid cultures were prepared by transferring the respective bacterium from blood agar plates to BHI and overnight incubation at 37° C. in an anaerobic atmosphere for A. viscosus, V. parvula, F. nucleatum, P. gingivalis, P. intermedia, T. forsythia, A. naeslundii, and C. sputigena, and in a 5% CO2 environment for S. salivarius, S. sanguinis, S. mitis, A. actinomycetemcomitans, S. mutans, S. sobrinus and S. gordonii. Overnight cultures were transferred to BHI and adjusted to a concentration of 1×10^7 CFU/ml (colony forming units per ml) by measuring the optical density at 600 nm (OD600) (BioRad SmartSpec 3000). For each strain, 200 μl of the bacterial suspension was added to a 96-well plate containing 20 μl of the respective saccharides. Final concentrations of the saccharides were set to 5, 10, 20 and 25 μmol/ml. […] Plates were incubated as previously described.
(§2) For each combination of bacterium/saccharide, and for each of their respective controls (i.e. the particular bacterium in the nutritionally rich medium with no saccharide), the optical density was measured at 630 nm (OD630) at 0 h and 24 h (Thermo Scientific Multiskan Ascent). Additionally, the OD630 for combinations of bacterium/saccharides grown in a 5% CO2 environment were also measured every hour between 0 h and 9 h.
(§3) The experiment was carried out on three different days (thus providing 3 biological replicas) and on each day the experiment was carried out in quadruple (thus providing 4 technical replicas) for each combination of bacterium with saccharide and for each control. For each day and for each combination, the average (mean) of the values obtained (as detailed above) for the four technical replicas was calculated to provide a single value for each combination on each day. The values shown in Tables 5a,b to 6a,b, below, are the average (mean) of the three single values obtained for each combination of bacterium with saccharide.

Tannerella forsythia = conditions: T forsythia
Description: as §1, §2, §3

Streptococcus sobrinus = conditions: S sobrinus
Description: as §1, §2, §3

Streptococcus mutans = conditions: S mutans
Description: as §1, §2, §3

Veillonella parvula = conditions: V parvula
Description: as §1, §2, §3

Prevotella intermedia = conditions: P intermedia
Description: as §1, §2, §3

Streptococcus salivarius = conditions: S salivarius
Description: as §1, §2, §3

Fusobacterium nucleatum = conditions: F nucleatum
Description: as §1, §2, §3

Actinomyces naeslundii = conditions: A naeslundii
Description: as §1, §2, §3

[1] = test system: Aggregatibacter actinomycetemcomitans; conditions: A actinomycetemcomitans
Description: as §1, §2, §3

Streptococcus mitis = conditions: S mitis
Description: as §1, §2, §3

Capnocytophaga sputigena = conditions: C sputigena
Description: as §1, §2, §3

Actinomyces viscosus = conditions: A viscosus
Description: as §1, §2, §3

S. sanguinis = test system: S. sanguinis
Description: as §1, §2, §3

Streptococcus gordonii = conditions: S gordonii
Description: as §1, §2, §3

SMILES: OC[C@H]1O[C@@](O)(CO)[C@@H](O[C@H]2O[C@H](CO)[C@@H](O)[C@H](O)[C@H]2O)[C@@H]1O [D-Turanose, α-D-glucopyranosyl-(1→3)-α-D-fructofuranose]
- extent of growth: maximal OD630 over 24 hr divided by maximal OD of control (control = 1) (Porphyromonas gingivalis; 5 μmol/ml): 0.9385
- extent of growth: maximal OD630 over 24 hr divided by maximal OD of control (control = 1) (Porphyromonas gingivalis; 10 μmol/ml): 0.9601
- extent of growth: maximal OD630 over 24 hr divided by maximal OD of control (control = 1) (Porphyromonas gingivalis; 20 μmol/ml): 0.9183
- extent of growth: maximal OD630 over 24 hr divided by maximal OD of control (control = 1) (Porphyromonas gingivalis; 25 μmol/ml): 0.9574
- extent of growth: maximal OD630 over 24 hr divided by maximal OD of control (control = 1) (Tannerella forsythia; 5 μmol/ml): 0.9443
- extent of growth: maximal OD630 over 24 hr divided by maximal OD of control (control = 1) (Tannerella forsythia; 10 μmol/ml): 0.9445
- extent of growth: maximal OD630 over 24 hr divided by maximal OD of control (control = 1) (Tannerella forsythia; 20 μmol/ml): 0.9299
- extent of growth: maximal OD630 over 24 hr divided by maximal OD of control (control = 1) (Tannerella forsythia; 25 μmol/ml): 0.9298
- extent of growth: maximal OD630 over 24 hr divided by maximal OD of control (control = 1) (Streptococcus sobrinus; 5 μmol/ml): 1.1731
- extent of growth: maximal OD630 over 24 hr divided by maximal OD of control (control = 1) (Streptococcus sobrinus; 10 μmol/ml): 1.1323
- extent of growth: maximal OD630 over 24 hr divided by maximal OD of control (control = 1) (Streptococcus sobrinus; 20 μmol/ml): 1.0466
- extent of growth: maximal OD630 over 24 hr divided by maximal OD of control (control = 1) (Streptococcus sobrinus; 25 μmol/ml): 1.0760
- extent of growth: maximal OD630 over 24 hr divided by maximal OD of control (control = 1) (Streptococcus mutans; 5 μmol/ml): 1.0547
- extent of growth: maximal OD630 over 24 hr divided by maximal OD of control (control = 1) (Streptococcus mutans; 10 μmol/ml): 0.9829
- extent of growth: maximal OD630 over 24 hr divided by maximal OD of control (control = 1) (Streptococcus mutans; 20 μmol/ml): 0.9244
- extent of growth: maximal OD630 over 24 hr divided by maximal OD of control (control = 1) (Streptococcus mutans; 25 μmol/ml): 0.9121
- extent of growth: maximal OD630 over 24 hr divided by maximal OD of control (control = 1) (Veillonella parvula; 5 μmol/ml): 1.0000
- extent of growth: maximal OD630 over 24 hr divided by maximal OD of control (control = 1) (Veillonella parvula; 10 μmol/ml): 0.9980
- extent of growth: maximal OD630 over 24 hr divided by maximal OD of control (control = 1) (Veillonella parvula; 20 μmol/ml): 0.9904
- extent of growth: maximal OD630 over 24 hr divided by maximal OD of control (control = 1) (Veillonella parvula; 25 μmol/ml): 1.0049
- extent of growth: maximal OD630 over 24 hr divided by maximal OD of control (control = 1) (Prevotella intermedia; 5 μmol/ml): 1.1488
- extent of growth: maximal OD630 over 24 hr divided by maximal OD of control (control = 1) (Prevotella intermedia; 10 μmol/ml): 1.1312
- extent of growth: maximal OD630 over 24 hr divided by maximal OD of control (control = 1) (Prevotella intermedia; 20 μmol/ml): 1.0407
- extent of growth: maximal OD630 over 24 hr divided by maximal OD of control (control = 1) (Prevotella intermedia; 25 μmol/ml): 0.9664
- extent of growth: maximal OD630 over 24 hr divided by maximal OD of control (control = 1) (Streptococcus salivarius; 5 μmol/ml): 0.9483
- extent of growth: maximal OD630 over 24 hr divided by maximal OD of control (control = 1) (Streptococcus salivarius; 10 μmol/ml): 0.9662
- extent of growth: maximal OD630 over 24 hr divided by maximal OD of control (control = 1) (Streptococcus salivarius; 20 μmol/ml): 0.9401
- extent of growth: maximal OD630 over 24 hr divided by maximal OD of control (control = 1) (Streptococcus salivarius; 25 μmol/ml): 0.9445
- extent of growth: maximal OD630 over 24 hr divided by maximal OD of control (control = 1) (Fusobacterium nucleatum; 5 μmol/ml): 0.9458
- extent of growth: maximal OD630 over 24 hr divided by maximal OD of control (control = 1) (Fusobacterium nucleatum; 10 μmol/ml): 0.9456
- extent of growth: maximal OD630 over 24 hr divided by maximal OD of control (control = 1) (Fusobacterium nucleatum; 20 μmol/ml): 0.9285
- extent of growth: maximal OD630 over 24 hr divided by maximal OD of control (control = 1) (Fusobacterium nucleatum; 25 μmol/ml): 0.9348
- extent of growth: maximal OD630 over 24 hr divided by maximal OD of control (control = 1) (Actinomyces naeslundii; 5 μmol/ml): 0.9281
- extent of growth: maximal OD630 over 24 hr divided by maximal OD of control (control = 1) (Actinomyces naeslundii; 10 μmol/ml): 0.9561
- extent of growth: maximal OD630 over 24 hr divided by maximal OD of control (control = 1) (Actinomyces naeslundii; 20 μmol/ml): 0.9443
- extent of growth: maximal OD630 over 24 hr divided by maximal OD of control (control = 1) (Actinomyces naeslundii; 25 μmol/ml): 0.9441
- extent of growth: maximal OD630 over 24 hr divided by maximal OD of control (control = 1) ([1]; 5 μmol/ml): 0.7962
- extent of growth: maximal OD630 over 24 hr divided by maximal OD of control (control = 1) ([1]; 10 μmol/ml): 0.8318
- extent of growth: maximal OD630 over 24 hr divided by maximal OD of control (control = 1) ([1]; 20 μmol/ml): 0.8672
- extent of growth: maximal OD630 over 24 hr divided by maximal OD of control (control = 1) ([1]; 25 μmol/ml): 0.8368
- extent of growth: maximal OD630 over 24 hr divided by maximal OD of control (control = 1) (Streptococcus mitis; 5 μmol/ml): 1.4244
- extent of growth: maximal OD630 over 24 hr divided by maximal OD of control (control = 1) (Streptococcus mitis; 10 μmol/ml): 1.4274
- extent of growth: maximal OD630 over 24 hr divided by maximal OD of control (control = 1) (Streptococcus mitis; 20 μmol/ml): 1.3589
- extent of growth: maximal OD630 over 24 hr divided by maximal OD of control (control = 1) (Streptococcus mitis; 25 μmol/ml): 1.2710
- extent of growth: maximal OD630 over 24 hr divided by maximal OD of control (control = 1) (Capnocytophaga sputigena; 5 μmol/ml): 0.9568
- extent of growth: maximal OD630 over 24 hr divided by maximal OD of control (control = 1) (Capnocytophaga sputigena; 10 μmol/ml): 0.9629
- extent of growth: maximal OD630 over 24 hr divided by maximal OD of control (control = 1) (Capnocytophaga sputigena; 20 μmol/ml): 0.9558
- extent of growth: maximal OD630 over 24 hr divided by maximal OD of control (control = 1) (Capnocytophaga sputigena; 25 μmol/ml): 0.9630
- extent of growth: maximal OD630 over 24 hr divided by maximal OD of control (control = 1) (Actinomyces viscosus; 5 μmol/ml): 0.3631
- extent of growth: maximal OD630 over 24 hr divided by maximal OD of control (control = 1) (Actinomyces viscosus; 10 μmol/ml): 0.3079
- extent of growth: maximal OD630 over 24 hr divided by maximal OD of control (control = 1) (Actinomyces viscosus; 20 μmol/ml): 0.2558
- extent of growth: maximal OD630 over 24 hr divided by maximal OD of control (control = 1) (Actinomyces viscosus; 25 μmol/ml): 0.2348
- extent of growth: maximal OD630 over 24 hr divided by maximal OD of control (control = 1) (S. sanguinis; 5 μmol/ml): 0.8399
- extent of growth: maximal OD630 over 24 hr divided by maximal OD of control (control = 1) (S. sanguinis; 10 μmol/ml): 0.8356
- extent of growth: maximal OD630 over 24 hr divided by maximal OD of control (control = 1) (S. sanguinis; 20 μmol/ml): 0.8262
- extent of growth: maximal OD630 over 24 hr divided by maximal OD of control (control = 1) (S. sanguinis; 25 μmol/ml): 0.7991
- extent of growth: maximal OD630 over 24 hr divided by maximal OD of control (control = 1) (Streptococcus gordonii; 5 μmol/ml): 1.0397
- extent of growth: maximal OD630 over 24 hr divided by maximal OD of control (control = 1) (Streptococcus gordonii; 10 μmol/ml): 1.0491
- extent of growth: maximal OD630 over 24 hr divided by maximal OD of control (control = 1) (Streptococcus gordonii; 20 μmol/ml): 1.0248
- extent of growth: maximal OD630 over 24 hr divided by maximal OD of control (control = 1) (Streptococcus gordonii; 25 μmol/ml): 1.0226
